# According to patent US20240226130A1, “4'-THIONUCLEOSIDE ANALOGUES AND THEIR PHARMACEUTICAL USE” (Gilead Sciences, Inc., priority 2022, published 2024):
# Assays:
# [1] = Rhesus pharmacokinetic study, oral compound 7 (plasma and PBMC); details: for Intracellular concentration in PBMC: LOQ 0.16 μM compound 7, 0.04 μM triphosphate
# Method: The oral dose was administered via oral gavage, and after dose administration the dose apparatus was flushed with approximately 10 mL water before removal from the animal. Food was returned 4 hours after dosing. […] The K2EDTA tubes were kept chilled at approximately 5° C. until centrifugation (4° C., 5 minutes, 2000×g) to collect plasma. Centrifugation began within 1 hour of collection. Plasma samples were harvested, placed in micronic tubes, and maintained on dry ice prior to storage at −70° C. until analysis by LC-MS/MS. […] The sodium citrate tubes were then gently inverted 3-4 times and stored upright at ambient temperature until centrifugation to collect PBMCs. Centrifugation began as soon as possible following collection, within 6 hours after collection. The PBMCs were separated by centrifugation (30 minutes at 1500×g-1800×g, 18-20° C.), washed once with ice cold 0.9% NaCl and treated with red blood cell lysis buffer (3.5 g ammonium chloride and 0.036 g ammonium carbonate in 500 mL ultrapure water, prepared before first blood collection) for 10 minutes at ambient temperature. Subsequently, the cells were washed twice with ice cold 0.9% NaCl and the cell pellet maintained at −70° C. until analysis by LC-MS/MS.
# DNA polymerase α = DNA polymerase α (Homo sapiens (Human), UniProt P09884); assay: DNA polymerase α single nucleotide incorporation (SNI) rate assay; type: biochemical; details: incorporation rate as a percentage relative to the corresponding natural dNTP; 50 μM analog
# Method: Example 13: DNA Polymerase a Single Nucleotide Incorporation (SNI) Rate Assay
# The DNA polymerase (pol) a SNI assay utilized an annealed ^32P labeled primer-template complex of D19 [5′-G TCC CTG TTC GGG CGC CAC-3′] and D36 A/G/T/C [3′-CGACCGTCCAGGGACAAGCCCGCG (TGT/CGT/ACG/GCG) ATC TCT-5′] where the templating base was chosen to base pair to the natural dNTP and analogs assayed. Reactions containing 50 mM Tris-Cl pH 8.0, 5 mM DTT, 0.2 mg/mL bSA, 200 nM D19/D36 mer and 10 mM MgCl2 and 5 nM DNA pol a were heated to 37° C. and initiated by addition of 50 μM (final) natural dNTP or analogs. At 0, 5, 10, 20, 40, and 60 min, 10 μL of the reaction mixture was removed and quenched with 10 μL of a gel loading buffer containing 100 mM EDTA, 80% formamide and bromophenol blue, and heated at 65° C. for 5 minutes. The samples were run on a 20% polyacrylamide gel (8 M urea) and the gel was exposed to a phosphorimager screen. The substrate and the incorporation products, D19 and D20-28, were quantified using a Typhoon Trio Imager and Image Quant TL Software. The nucleotide incorporation rate was calculated in Prism by fitting the product formation using the single exponential equation: [D20]=A*(1−e−k*t), where [D20] represents the amount (in nM) of the elongated product formed, t represents the reaction time, k represents the observed rate, and A represents the amplitude of the exponential. […]
# [2] = Rhesus pharmacokinetic study, intravenous compound 7 (plasma and PBMC); details: for Intracellular concentration in PBMC: LOQ 2.5 μM compound 7, 0.63 μM triphosphate
# Method: Male Indian Origin Rhesus Monkeys were used for the pharmacokinetic studies. Studies were conducted under a protocol approved by IACUC. […] The intravenous dose was administered as an approximately 30-minute infusion, and after dose administration the dose apparatus was flushed with approximately 1 mL saline before removal from the animal. Food was returned 4 hours after dosing. […] The K2EDTA tubes were kept chilled at approximately 5° C. until centrifugation (4° C., 5 minutes, 2000×g) to collect plasma. Centrifugation began within 1 hour of collection. Plasma samples were harvested, placed in micronic tubes, and maintained on dry ice prior to storage at −70° C. until analysis by LC-MS/MS. […] The sodium citrate tubes were then gently inverted 3-4 times and stored upright at ambient temperature until centrifugation to collect PBMCs. Centrifugation began as soon as possible following collection, within 6 hours after collection. The PBMCs were separated by centrifugation (30 minutes at 1500×g-1800×g, 18-20° C.), washed once with ice cold 0.9% NaCl and treated with red blood cell lysis buffer (3.5 g ammonium chloride and 0.036 g ammonium carbonate in 500 mL ultrapure water, prepared before first blood collection) for 10 minutes at ambient temperature. Subsequently the cells were washed twice with ice cold 0.9% NaCl, the cell pellet resuspended in ice cold RIPA buffer (fortified with Pierce protease ad phosphatase inhibitor tablet), snap frozen in liquid nitrogen, and maintained at −70° C. until analysis by LC-MS/MS.
# DNA polymerase γ = DNA polymerase γ (Homo sapiens (Human), UniProt P54098); assay: DNA polymerase γ single nucleotide incorporation (SNI) rate assay; type: biochemical; details: incorporation rate as a percentage relative to the corresponding natural dNTP; 50 μM analog
# Method: Example 12: DNA Polymerase γ Single Nucleotide Incorporation (SNI) Rate Assay
# The DNA polymerase (pol) γ SNI assay utilized an annealed ^32P labeled primer-template complex of D19 [5′-G TCC CTG TTC GGG CGC CAC-3′] and D36 A/G/T/C [3′-CGACCGTCCAGGGACAAGCCCGCG (TGT/CGT/ACG/GCG) ATC TCT-5′] where the templating base was chosen to base pair to the natural dNTP and analogs assayed. 20 nM DNA pol γ large subunit and 100 nM pol γ accessory subunit were preincubated on ice for 5 minutes and added to reaction mix containing 50 mM Tris-Cl pH 8.0, 5 mM DTT, 0.2 mg/mL bSA, 200 nM D19/D36 mer and 10 mM MgCl2. […] The substrate and the incorporation products, D19 and D20-28, were quantified using a Typhoon Trio Imager and Image Quant TL Software. The nucleotide incorporation rate was calculated in Prism by fitting the product formation using the single exponential equation: [D20]=A*(1−e−k*t), where [D20] represents the amount (in nM) of the elongated product formed, t represents the reaction time, k represents the observed rate, and A represents the amplitude of the exponential. […]
# Chain of DNA polymerase α (P09884 whole entry): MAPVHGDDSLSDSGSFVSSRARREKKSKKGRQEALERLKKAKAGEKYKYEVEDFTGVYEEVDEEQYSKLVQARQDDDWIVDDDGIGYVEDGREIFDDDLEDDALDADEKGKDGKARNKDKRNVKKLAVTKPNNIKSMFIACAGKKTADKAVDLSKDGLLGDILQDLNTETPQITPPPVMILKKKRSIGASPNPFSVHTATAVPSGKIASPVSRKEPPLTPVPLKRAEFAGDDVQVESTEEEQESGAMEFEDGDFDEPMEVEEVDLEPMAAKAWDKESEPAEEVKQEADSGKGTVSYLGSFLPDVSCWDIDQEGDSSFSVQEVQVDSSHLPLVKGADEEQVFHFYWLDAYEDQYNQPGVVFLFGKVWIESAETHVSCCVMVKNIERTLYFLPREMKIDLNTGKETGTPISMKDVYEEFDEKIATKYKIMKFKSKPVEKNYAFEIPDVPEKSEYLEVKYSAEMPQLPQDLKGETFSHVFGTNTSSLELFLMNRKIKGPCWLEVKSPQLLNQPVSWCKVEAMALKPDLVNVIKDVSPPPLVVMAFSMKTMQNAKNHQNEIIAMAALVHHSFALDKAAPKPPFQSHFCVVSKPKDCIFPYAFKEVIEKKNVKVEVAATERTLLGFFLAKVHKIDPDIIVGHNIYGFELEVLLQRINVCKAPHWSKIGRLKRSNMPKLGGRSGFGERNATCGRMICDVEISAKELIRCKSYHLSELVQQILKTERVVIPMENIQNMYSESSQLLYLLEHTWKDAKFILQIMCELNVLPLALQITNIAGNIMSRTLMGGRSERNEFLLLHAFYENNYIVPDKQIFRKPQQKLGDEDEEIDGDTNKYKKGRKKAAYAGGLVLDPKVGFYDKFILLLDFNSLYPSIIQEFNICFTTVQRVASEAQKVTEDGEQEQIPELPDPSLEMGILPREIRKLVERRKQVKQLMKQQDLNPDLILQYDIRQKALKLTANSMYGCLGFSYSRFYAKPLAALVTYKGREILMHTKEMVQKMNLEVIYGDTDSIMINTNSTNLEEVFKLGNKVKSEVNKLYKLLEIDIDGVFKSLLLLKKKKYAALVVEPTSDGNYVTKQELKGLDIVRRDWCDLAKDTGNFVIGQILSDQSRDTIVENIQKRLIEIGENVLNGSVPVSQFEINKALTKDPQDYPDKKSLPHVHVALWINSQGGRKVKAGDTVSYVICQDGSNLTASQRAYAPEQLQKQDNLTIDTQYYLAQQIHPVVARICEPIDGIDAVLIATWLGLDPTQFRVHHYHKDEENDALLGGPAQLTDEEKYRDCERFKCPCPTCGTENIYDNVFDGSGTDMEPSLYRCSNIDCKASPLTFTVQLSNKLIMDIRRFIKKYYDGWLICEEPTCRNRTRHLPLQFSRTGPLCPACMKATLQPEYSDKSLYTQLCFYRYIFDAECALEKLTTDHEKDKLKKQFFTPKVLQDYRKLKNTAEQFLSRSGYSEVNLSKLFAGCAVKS
# Chain of DNA polymerase γ (P54098 whole entry, looked up): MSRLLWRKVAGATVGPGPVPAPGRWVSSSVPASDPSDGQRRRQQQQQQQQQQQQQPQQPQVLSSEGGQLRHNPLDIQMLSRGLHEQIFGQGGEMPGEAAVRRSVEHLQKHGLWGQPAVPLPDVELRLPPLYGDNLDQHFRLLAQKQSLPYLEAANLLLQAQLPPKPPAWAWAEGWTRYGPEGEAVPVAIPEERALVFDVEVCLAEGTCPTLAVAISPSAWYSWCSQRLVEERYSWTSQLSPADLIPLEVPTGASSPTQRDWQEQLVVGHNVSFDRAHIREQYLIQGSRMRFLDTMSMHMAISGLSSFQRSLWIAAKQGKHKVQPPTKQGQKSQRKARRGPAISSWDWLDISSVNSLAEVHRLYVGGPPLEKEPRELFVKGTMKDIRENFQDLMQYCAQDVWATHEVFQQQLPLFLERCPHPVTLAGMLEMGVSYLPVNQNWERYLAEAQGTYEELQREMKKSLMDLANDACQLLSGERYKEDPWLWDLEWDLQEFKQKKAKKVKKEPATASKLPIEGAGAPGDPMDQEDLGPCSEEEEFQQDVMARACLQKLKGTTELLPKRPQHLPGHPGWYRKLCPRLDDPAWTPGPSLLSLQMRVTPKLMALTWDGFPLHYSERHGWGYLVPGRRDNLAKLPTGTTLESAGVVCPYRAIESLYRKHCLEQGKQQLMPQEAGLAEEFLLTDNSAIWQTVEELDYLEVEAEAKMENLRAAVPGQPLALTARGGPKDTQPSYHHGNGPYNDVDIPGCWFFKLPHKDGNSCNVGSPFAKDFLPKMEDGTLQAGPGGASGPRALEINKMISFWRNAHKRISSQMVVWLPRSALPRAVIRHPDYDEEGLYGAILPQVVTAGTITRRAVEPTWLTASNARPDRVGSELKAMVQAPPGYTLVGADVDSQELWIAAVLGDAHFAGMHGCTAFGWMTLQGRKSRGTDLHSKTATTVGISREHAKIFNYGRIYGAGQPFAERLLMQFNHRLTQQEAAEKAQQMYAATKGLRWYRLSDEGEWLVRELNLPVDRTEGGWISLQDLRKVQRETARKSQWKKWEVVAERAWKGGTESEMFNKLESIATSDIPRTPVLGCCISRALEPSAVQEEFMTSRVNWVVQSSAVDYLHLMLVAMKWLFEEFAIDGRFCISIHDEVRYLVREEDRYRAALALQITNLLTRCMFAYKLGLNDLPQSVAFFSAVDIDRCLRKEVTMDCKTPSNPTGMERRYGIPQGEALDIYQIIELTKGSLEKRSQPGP
# Chain of DNA polymerase γ (Q9UHN1 whole entry partner, looked up): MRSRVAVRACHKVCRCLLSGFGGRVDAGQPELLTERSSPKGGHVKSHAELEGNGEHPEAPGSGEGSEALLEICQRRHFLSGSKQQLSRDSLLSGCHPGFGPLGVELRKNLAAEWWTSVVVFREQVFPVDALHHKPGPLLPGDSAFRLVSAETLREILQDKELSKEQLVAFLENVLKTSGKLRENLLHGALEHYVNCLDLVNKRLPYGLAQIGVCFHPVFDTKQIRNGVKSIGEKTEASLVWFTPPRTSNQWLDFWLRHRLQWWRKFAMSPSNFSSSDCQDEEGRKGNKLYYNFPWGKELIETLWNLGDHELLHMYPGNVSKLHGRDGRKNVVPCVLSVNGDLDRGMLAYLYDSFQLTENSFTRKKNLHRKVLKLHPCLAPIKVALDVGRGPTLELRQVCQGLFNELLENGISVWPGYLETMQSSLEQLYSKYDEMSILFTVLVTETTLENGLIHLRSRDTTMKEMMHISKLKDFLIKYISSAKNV
substance,measurement,setting,value
"Hemitriethylamine ((2R,3S,5R)-5-(4-amino-5-fluoro-2-oxopyrimidin-1(2H)-yl)-2-ethynyl-3-hydroxytetrahydrothiophen-2-yl)methyl triphosphate [Compound 8]",Intracellular concentration in PBMC,[1]; 12 hr after oral 7.5 mg/kg compound 7,1.43 ± 0.45 µM
same,Intracellular concentration in PBMC,[1]; 24 hr after oral 7.5 mg/kg compound 7,1.78 ± 0.57 µM
same,Intracellular concentration in PBMC,[1]; 48 hr after oral 7.5 mg/kg compound 7,1.15 ± 0.76 µM
same,Intracellular concentration in PBMC,[1]; 72 hr after oral 7.5 mg/kg compound 7,0.47 ± 0.22 µM
same,Intracellular concentration in PBMC,[1]; 120 hr after oral 7.5 mg/kg compound 7,0.17 ± 0.01 µM
same,Intracellular concentration in PBMC,[1]; 168 hr after oral 7.5 mg/kg compound 7,0.09 ± 0.02 µM
same,Calculated half-life of triphosphate metabolite,"[1]; in PBMC, oral 7.5 mg/kg compound 7",Calculated half-life of triphosphate metabolite: 43.1 ± 19.3 hours
same,DNA Pol α SNIR,DNA polymerase α,2.6
same,Intracellular concentration in PBMC,[2]; 12 hr after intravenous 1 mg/kg compound 7,2.19 ± 0.31 µM
same,Intracellular concentration in PBMC,[2]; 24 hr after intravenous 1 mg/kg compound 7,1.34 ± 0.14 µM
same,Intracellular concentration in PBMC,[2]; 48 hr after intravenous 1 mg/kg compound 7,0.42 ± 0.06 µM
same,Intracellular concentration in PBMC,[2]; 72 hr after intravenous 1 mg/kg compound 7,BLQ
same,Intracellular concentration in PBMC,[2]; 144 hr after intravenous 1 mg/kg compound 7,BLQ
same,Intracellular concentration in PBMC,[2]; 168 hr after intravenous 1 mg/kg compound 7,BLQ
same,Calculated half life of triphosphate metabolite,"[2]; in PBMC, intravenous 1 mg/kg compound 7",Calculated half life of triphosphate metabolite: 19.8 ± 9.3 hours
same,DNA Pol γ SNIR,DNA polymerase γ,1.3
